Results on one molecule are retold here after US20250319162A1, “METHODS AND MATERIALS FOR TREATING OBESITY” (Regents of the University of California, priority 2024, published 2025).

SMILES strings stand for the structures.

Assay [1] concerns Drp1 S637 phosphorylation in human primary adipocyte cell line SGBS. In words: Immunoblot of phospho-Drp1 (S637) in human primary adipocytes (SGBS) after forskolin. Format: cell-based. To be noted: SGBS cells; pretreated with 50 μM RBC8 or DMSO for 30 min, then 20 μM forskolin. How it is done:
FIGS. 5A-5J. […] FIG. 5A: Quantification of phospho-Drp1 (S637) and total Drp1 in iWAT of HFD-fed Rala^f/f (n=10) and Rala^AKO (n=13) mice; P=0.0001. FIGS. 5B and 5C: Immunoblotting (FIG. 5B) and quantification (FIG. 5C) of phospho-Drp1 (S637) and total Drp1 in immortalized adipocytes (n=4 biological samples); P=0.0125 (FIG. 5C). Adipocytes were treated with 20 μM forskolin (Fsk) for indicated time. FIGS. 5D and 5E: Immunoblotting (FIG. 5D) and quantification of phospho-Drp1 (S637) and total Drp1 in human primary adipocytes (SGBS) (n=4 biological samples). […] Significance in correlation was assessed by Spearman's correlation test (FIGS. 5H, and 5J). […]
Tissues or cells were lysed or homogenized in RIPA buffer with freshly added Halt Protease and Phosphatase Inhibitor Cocktail (Thermo Fisher). […] Cleared supernatants were collected and concentrations were determined with a BCA protein assay kit (Pierce) and iTecan plate reader for quantification. […] Individual 10 proteins were detected with the specific antibodies (OXPHOS ab110413, β-tubulin 2146S, phospho-Drp1 (Ser637) 4867S, phospho-HSL (Ser660) 45804S, HSL 4107S, MYC 2276S, Drp1 8570S, phosphor-AMPK (Thr172) 2535S, AMPK 5831S, RalA BD610221, β-actin 66009-1-Ig, Flag 66008-4-Ig, GFP 66002-1-Ig, and Sec512751-1-AP). […] Bands were quantified with ImageStudio or ImageJ.

For assay [2], the system named is Drp1 S637 phosphorylation in 3T3-L1 adipocytes. In words: Immunoblot of phospho-Drp1 (S637) in 3T3-L1 adipocytes after forskolin. Format: cell-based, murine. To be noted: pretreated with 50 μM RBC8 or DMSO for 30 min, then 5 μM forskolin. The source says: Immunoblotting of phospho-Drp1 S637, total Drp1 and β-Tubulin in iWAT of HFD-fed Rala^f/f (n=10) and Rala^AKO (n=13) mice. FIGS. 12B and 12C: Immunoblotting (FIG. 12B) and quantification (FIG. 12C) of phospho-Drp1(S637), total Drp1, and β-Tubulin in eWAT of HFD-fed Rala^f/f (n=8) and Rala^AKO (n=12) mice. FIGS. 12D and 12E: Immunoblotting (FIG. 12D) and quantification (FIG. 12E) of phospho-Drp1(S637), total Drp1 and β-Actin in iWAT of CD-fed mice. Non-fasted Rala^f/f (vehicle n=3, CL n=4) and Rala^AKO (vehicle n=3, CL n=5) mice fed with CD were i.p. injected with 1 mg/kg CL for 30 min. P=0.0054, P=0.0135 (FIG. 12E). FIGS. 12F and 12G: Immunoblotting (FIG. 12F) and quantification (FIG. 12G) of phospho-Drp1(S637), total Drp1, RalA, and β-Actin in fully differentiated primary adipocytes (n=4 biological samples). P=0.0085, P=0.0046 (FIG. 12G). […] FIGS. 12H and 12I: Immunoblotting (FIG. 12H) and quantification (FIG. 12I) of phospho-Drp1(S637), total Drp1, RalA, and β-Actin in immortalized adipocytes (n=4 biological samples). […] FIGS. 12J and 12K: Immunoblotting (FIG. 12J) and quantification (FIG. 12K) of phospho-Drp1(S637), total Drp1, and β-Actin in 3T3-L1 adipocytes (n=4 biological samples). […] FIGS. 12M and 12N: Quantification of phospho-HSL (S660) and HSL in primary (FIG. 12M) and immortalized adipocytes (FIG. 12N) treated with CL for indicated time (n=4 biological samples). […]

For the molecule `COc1ccc(OC)c(C2C(C#N)=C(N)Oc3n[nH]c(-c4ccc5ccccc5c4)c32)c1` (centres unmarked) [RBC8], the entries for the “forskolin-stimulated Drp1 S637 phosphorylation” value in assay [1] and in assay [2] were “increased forskolin-stimulated Drp1 S637 phosphorylation” and “significantly increased forskolin-stimulated Drp1 S637 phosphorylation”, respectively.
